Values joined by “and” are separate entries in the source; they are usually repeats but may differ in a detail not shown here. Equal entries are not always repeated. Where two headings read alike, the source gives them in different places.
How the values were obtained:
MV-4-11 = experiment: Proliferation assay (spheroid assay) MV-4-11; assay type: cell-based, human
Method in brief: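 Cells grown as spheroids in ultra-low attachment round-bottom wells with compound at varied concentrations (0.3% DMSO) for 8 d at 37 °C; confluence imaged every 4 h. AUC of confluence over time (t=0 baseline) expressed as % of vehicle control; absolute IC50 from nonlinear least-squares fit.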

MOLM14 = experiment: Proliferation assay (spheroid assay) MOLM14; assay type: cell-based, human
Procedure: (§1) The anti-proliferative effect of menin/MLL protein/protein interaction inhibitor test compounds was assessed in human leukemia cell lines. The cell lines MV-4-11 and MOLM14 harbor MLL translocations and express the MLL fusion proteins MLL-AF4 and MLL-AF9, respectively, as well as the wildtype protein from the second allele. […] K562 and KG1 were used as a control cell lines containing two MLL wildtype alleles in order to exclude compounds that display general cytotoxic effects.
(§2) MV-4-11 and MOLM14 were cultured in RPMI-1640 (Sigma Aldrich) supplemented with 10% fetal bovine serum (HyClone), 2 mM L-glutamine (Sigma Aldrich) and 50 μg/ml gentamycin (Gibco). K562 were propagated in RPMI-1640 (Sigma Aldrich) supplemented with 20% fetal bovine serum (HyClone), 2 mM L-glutamine (Sigma Aldrich) and 50 μg/ml gentamycin (Gibco). KG1 were cultured in Iscove's MDM (Gibco) supplemented with 20% fetal bovine serum (HyClone), 2 mM L-glutamine (Sigma Aldrich) and 50 μg/ml gentamycin (Gibco).
(§3) In order to assess the anti-proliferative effects, 1,500 MV-4-11, 300 MOLM14, 750 K562 or 1,300 KG1 cells were seeded in 200 μl media per well in 96-well round bottom, ultra-low attachment plates (Costar, catalogue number 7007). Cell seeding numbers were chosen based on growth curves to ensure linear growth throughout the experiment. Test compounds were added at different concentrations and the DMSO content was normalized to 0.3%. Cells were incubated for 8 d at 37° C. and 5% CO2. Spheroid like growth was monitored in real-time by live-cell imaging (IncuCyteZOOM, Essenbio, 4× objective) acquiring one image every four hours for 8 d. Confluence (%) as a measure of spheroid size was determined using an integrated analysis tool.
(§4) In order to determine the cumulative effect of the test compounds over time, the area under the curve (AUC) in a plot of confluence against time was calculated. Confluence at the beginning of the experiment (t=0) was used as baseline for the AUC calculation.
(§5) Absolute IC50 values were calculated according to the following procedure: % Control=(AUC sample/AUC control)*100 AUC control=mean AUC of control values (cells without compound/DMSO as vehicle control)
(§6) A non-linear curve fit was applied using the least squares (ordinary) fit method to the plot of % control versus compound concentration. Based on this, the absolute IC50 value (half maximal inhibitory concentration of the test compound causing an anti-proliferative effect of 50% relative to the vehicle control) was calculated.

KG1 = experiment: Proliferation assay (spheroid assay) KG1, control cell line; assay type: cell-based; settings: Homo sapiens, KG-1; KG1 control cell line; averaged values; read-out: Spheroid assay KG1 (IC50 (μM))
Procedure: as §1, §2, §3, §4, §5, §6

menin = biological target: T1, menin (Homo sapiens, UniProt O00255, T541A); experiment: Menin/MLL fluorescence polarization (FP) assay; assay type: binding
T1 sequence (O00255 with tags, fused parts or gaps T541A): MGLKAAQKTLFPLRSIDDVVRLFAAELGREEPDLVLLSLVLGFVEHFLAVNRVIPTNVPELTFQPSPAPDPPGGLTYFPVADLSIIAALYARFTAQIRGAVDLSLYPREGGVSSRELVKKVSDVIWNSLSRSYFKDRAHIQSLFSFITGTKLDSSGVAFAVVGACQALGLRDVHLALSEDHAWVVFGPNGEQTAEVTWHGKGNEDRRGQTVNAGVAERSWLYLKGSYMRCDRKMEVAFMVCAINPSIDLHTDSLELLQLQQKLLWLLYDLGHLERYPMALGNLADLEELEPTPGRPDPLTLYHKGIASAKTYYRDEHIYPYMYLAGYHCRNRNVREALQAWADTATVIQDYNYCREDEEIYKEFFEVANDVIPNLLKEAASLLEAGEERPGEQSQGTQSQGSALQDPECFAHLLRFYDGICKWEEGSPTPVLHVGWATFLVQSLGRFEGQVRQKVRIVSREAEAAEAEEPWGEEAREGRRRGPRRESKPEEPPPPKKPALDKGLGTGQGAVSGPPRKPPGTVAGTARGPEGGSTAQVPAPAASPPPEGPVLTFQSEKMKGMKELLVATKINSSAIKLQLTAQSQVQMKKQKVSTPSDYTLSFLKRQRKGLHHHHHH
Procedure: 1) Menin/MLL Fluorescence Polarization Assay
To a non-surface binding, black 384-well microtiter plate was added 50 nL 160× test compound in DMSO and 4 μL 2× menin in assay buffer (40 mM Tris·HCl, pH 7.5, 50 mM NaCl, 1 mM DTT and 0.001% Tween 20). After incubation of test compound and menin for 10 min at ambient temperature, 4 μL 2×FITC-MBM1 peptide (FITC-β-alanine-SARWRFPARPGT-NH2 (SEQ ID NO: 2)) in assay buffer was added, the microtiter plate centrifuged at 1000 rpm for 1 min and the assay mixtures incubated for 15 min at ambient temperature. The relative amount of menin·FITC-MBM1 complex present in an assay mixture is determined by measuring the fluorescence polarization (FP) of the FITC label with a BMG Pherastar plate reader (ex. 485 nm/em. 520 nm) at ambient temperature. The final concentrations of reagents in the binding assay are 100 nM menin, 5 nM FITC-MBM1 peptide and 0.625% DMSO in assay buffer. Dose-response titrations of test compounds are conducted using an 11 point, three-fold serial dilution scheme, starting at 31 μM.
Compound potencies were determined by first calculating % inhibition at each compound concentration according to equation 1: % inhibition=((HC−LC)−(FP^compound−LC))/(HC−LC))*100 (Eqn 1)
Where LC and HC are the FP values of the assay in the presence or absence of a saturating concentration of a compound that competes with FITC-MBM1 for binding to menin, and FP^compound is the measured FP value in the presence of the test compound. HC and LC FP values represent an average of at least 16 replicates per plate. […] 2) Proliferation Assay

K562 = experiment: Proliferation assay (spheroid assay) K562, control cell line; assay type: cell-based; settings: Homo sapiens
Procedure: as §1, §2, §3, §4, §5, §6

[1] = Homo sapiens, MV4-11, MV-4-11, averaged values, read-out: Spheroid assay MV-4-11 (IC50 (μM))
[2] = Homo sapiens, MOLM-14, MOLM14, averaged values, read-out: Spheroid assay MOLM14 (IC50 (μM))
[3] = averaged values over all measurements, read-out: Menin FP assay (IC50 (μM))
[4] = K562 control cell line, averaged values, read-out: Spheroid assay K562 (IC50 (μM))
[5] = 100 nM menin, 5 nM FITC-MBM1 peptide, individual measurements (not averaged), read-out: (1) Menin FP assay (IC50 (μM))
[6] = MV-4-11 (MLL-AF4), 8 d, absolute IC50 from AUC of confluence, individual measurements (not averaged), read-out: (2) Spheroid assay MV-4-11 (IC50 (μM))
[7] = MOLM14 (MLL-AF9), 8 d, absolute IC50 from AUC of confluence, individual measurements (not averaged), read-out: (2) Spheroid assay MOLM14 (IC50 (μM))
[8] = 192 h, K562 (MLL wildtype control), 8 d, absolute IC50 from AUC of confluence, individual measurements (not averaged), read-out: (2) Spheroid assay K562 (IC50 (μM))

IC50 (MV-4-11; [1])	IC50 (MOLM14; [2])	IC50 (menin; [3])	IC50 (K562; [4])	SMILES	IC50 (KG1)	other results
0.7 µM	1.2 µM	–	–	CC(C1CCOCC1)N1CC2(CCN(c3ncnc4sc(CC(F)(F)F)cc34)C2)C1 (single isomer, unassigned) [Compound 155]	> 15 µM	–
0.92 µM	–	–	–	CC(C)[C@@H](c1cnn(C)c1)N1CC[C@]2(CCN(c3ncnc4sc(CC(F)(F)F)cc34)C2)C1 (single isomer, unassigned) [Compound 189]	> 15 µM	–
0.66 µM	1.2 µM	–	–	Fc1ccc(CN2CC[C@]3(CCN(c4ncnc5sc(CC(F)(F)F)cc45)C3)C2)cc1 (single isomer, unassigned) [Compound 291]	> 15 µM	–
0.29 µM	1.5 µM	–	–	Fc1ccc(CN2CC[C@@]3(CCN(c4ncnc5sc(CC(F)(F)F)cc45)C3)C2)cc1 (single isomer, unassigned) [Compound 292]	> 15 µM	–
4.9 µM	14.6 µM	0.39 µM	> 15 µM	FC(F)(F)CCN1CC2(CCN(c3ncnc4sc(CC(F)(F)F)cc34)C2)C1 [Compound 2]	–	–
3.8 µM	5.6 µM	0.1 µM	~15 µM	FC(F)(F)Cc1cc2c(N3CCC4(CCN(Cc5ccccc5)C4)CC3)ncnc2s1 [Compound 3]	–	–
6.4 µM	30.6 µM	0.67 µM	> 15 µM	FC(F)(F)Cc1cc2c(N3CCC4(CN(Cc5cn6ccccc6n5)C4)C3)ncnc2s1 [Compound 5]	–	–
2.4 µM	10.1 µM	0.24 µM	> 15 µM	FC(F)(F)Cc1cc2c(N3CCC4(CN(Cc5ccc6nccn6c5)C4)C3)ncnc2s1 [Compound 6]	–	–
> 15 µM	> 15 µM	0.63 µM	> 15 µM	FC(F)(F)Cc1cc2c(N3CCC4(CN(Cc5cnccn5)C4)C3)ncnc2s1 [Compound 12]	–	–
0.73 µM	4.2 µM	0.042 µM	> 15 µM	CC(C)CN1CC2(CCN(c3ncnc4sc(CC(F)(F)F)cc34)C2)C1 [Compound 13]	–	–
14 µM	> 15 µM	0.57 µM	> 15 µM	FC(F)(F)Cc1cc2c(N3CCC4(CN(Cc5ccnc(Cl)n5)C4)C3)ncnc2s1 [Compound 15]	–	–
–	–	–	–	FC(F)(F)Cc1cc2c(N3CC4(CCN(Cc5ccccc5)C4)C3)ncnc2s1 [Compound 16]	–	IC50 (menin; [5]): 0.134 µM; IC50 (MV-4-11; [6]): 4.7 µM and > 15 µM; IC50 (MOLM14; Homo sapiens, MOLM-14, 192 h, MOLM14 (MLL-AF9), 8 d, absolute IC50 from AUC of confluence, individual measurements (not averaged), read-out: (2) Spheroid assay MOLM14 (IC50 (μM))): 9.3 µM; IC50 (MOLM14; [7]): 8.7 µM; IC50 (K562; [8]): > 15 µM
0.55 µM	2 µM	0.069 µM	> 15 µM	FC(F)(F)Cc1cc2c(N3CCC4(CN(CC5CC6(CCC6)C5)C4)C3)ncnc2s1 [Compound 22]	–	–
0.64 µM	4 µM	–	–	CC(C)C(c1cnn(CCO)c1)N1CC2(CCN(c3ncnc4sc(CC(F)(F)F)cc34)C2)C1 (stereo not drawn) [Compound 62]	> 15 µM	–
0.58 µM	1.5 µM	–	–	CC(Cc1ccc(F)cc1)N1CC2(CCN(c3ncnc4sc(CC(F)(F)F)cc34)C2)C1 (stereo not drawn) [Compound 84]	> 15 µM	–
2.6 µM	11.3 µM	0.092 µM	> 15 µM	O=C([C@@H]1CC2(CC2)CN1)N1CC2(CCN(c3ncnc4sc(CC(F)(F)F)cc34)C2)C1 [Compound 86]	–	–
–	–	–	–	O=C([C@@H]1CC2(CC2)CN1)N1CC2(C1)CN(c1ncnc3sc(CC(F)(F)F)cc13)C2 [Compound 87]	–	IC50 (menin; [5]): 0.048 µM; IC50 (MV-4-11; [6]): 4.1 µM and 0.63 µM and 0.58 µM and 0.68 µM and 0.52 µM; IC50 (MOLM14; [7]): 8 µM and 2.8 µM and 4.6 µM; IC50 (K562; [8]): > 15 µM
0.78 µM	1.9 µM	–	–	CC(C)C(Cc1ccccc1)N1CC2(CCN(c3ncnc4sc(CC(F)(F)F)cc34)C2)C1 (stereo not drawn) [Compound 182]	> 15 µM	–
0.97 µM	–	–	–	CC(C)CN1CC[C@@]2(CCN(c3ncnc4sc(CC(F)(F)F)cc34)C2)C1 [Compound 184]	> 15 µM	–
0.76 µM	1.4 µM	–	–	CC(C)C(c1cnn(C(C)C)c1)N1CC2(CCN(c3ncnc4sc(CC(F)(F)F)cc34)C2)C1 (stereo not drawn) [Compound 214]	> 15 µM	–
0.32 µM	2 µM	–	–	CC(C)[C@@H](c1cn[nH]c1)N1CC2(CCN(c3ncnc4sc(CC(F)(F)F)cc34)C2)C1 [Compound 245]	> 15 µM	–
0.67 µM	4.6 µM	–	–	CC(C)C(N1CC2(CCN(c3ncnc4sc(CC(F)(F)F)cc34)C2)C1)C1(F)CNC1 (stereo not drawn) [Compound 269]	> 15 µM	–
0.44 µM	1.3 µM	–	–	CC(C)[C@@H](N1CC2(CCN(c3ncnc4sc(CC(F)(F)F)cc34)C2)C1)C1(F)CN(C)C1 [Compound 304a]	> 15 µM	–
0.32 µM	1.5 µM	–	–	CC(C)C(CC1CCNCC1)N1CC2(CCN(c3ncnc4sc(CC(F)(F)F)cc34)C2)C1 (stereo not drawn) [Compound 315]	> 15 µM	–
0.4 µM	0.96 µM	–	–	CC(C)C(CC1CCN(C)CC1)N1CC2(CCN(c3ncnc4sc(CC(F)(F)F)cc34)C2)C1 (stereo not drawn) [Compound 316]	> 3.7 µM	–
0.77 µM	–	–	–	CC(CN1CC2(CCN(c3ncnc4sc(CC(F)(F)F)cc34)C2)C1)c1ccc(F)cc1 (stereo not drawn) [Compound 317]	> 15 µM	–
